Source: ChEMBL document CHEMBL5550171, “Poly (ADP-ribose) polymerase (PARP) inhibitors as anticancer agents: An outlook on clinical progress, synthetic strategies, biological activity, and structure-activity relationship” (Eur J Med Chem, 2024)
One block for each molecule: values may come before it.

Key:
MDA-MB-231 [1] = assay: Cytotoxicity against human MDA-MB-231 cells assessed as reduction in cell growth incubated for 72 hrs by alamar blue reagent based analysis; assay type: functional; settings: MDA-MB-231, 72 h
MCF7 [2] = assay: Cytotoxicity against human MCF7 cells assessed as reduction in cell growth incubated for 72 hrs by alamar blue reagent based analysis; assay type: functional; settings: MCF7, 72 h
[3] = molecular target: Poly [ADP-ribose] polymerase 2 (Homo sapiens, UniProt Q9UGN5); assay: Inhibition of PARP2 (unknown origin)
A549 [4] = assay: Antiproliferative activity against human A549 cells assessed as reduction in cell growth incubated for 24 hrs by MTT assay; assay type: functional, cell-based; settings: A549, 24 h
HepG2 = assay: Antiproliferative activity against human HepG2 cells assessed as reduction in cell growth incubated for 24 hrs by MTT assay; assay type: functional, cell-based; settings: HepG2, 24 h
MCF7 [5] = assay: Antiproliferative activity against human MCF7 cells assessed as reduction in cell growth incubated for 24 hrs by MTT assay; assay type: functional, cell-based; settings: MCF7, 24 h
HCT-116 [6] = assay: Antiproliferative activity against human HCT-116 cells assessed as reduction in cell growth incubated for 24 hrs by MTT assay; assay type: functional, cell-based; settings: HCT-116, 24 h
MDA-MB-157 = assay: Anticancer activity against human MDA-MB-157 cells assessed as cell growth inhibition; assay type: functional, cell-based
HCC1395 = assay: Anticancer activity against human HCC1395 cells assessed as cell growth inhibition; assay type: functional, cell-based
[7] = molecular target: Protein mono-ADP-ribosyltransferase PARP3 (Homo sapiens, UniProt Q9Y6F1); assay: Inhibition of PARP3 (unknown origin)
MDA-MB-231 [8] = assay: Cytotoxicity against human MDA-MB-231 cells assessed as reduction in cell viability measured for 48 hrs by MTT assay; assay type: functional, cell-based; settings: MDA-MB-231, 48 h
MCF7 [9] = assay: Cytotoxicity against human MCF7 cells assessed as reduction in cell viability measured for 48 hrs by MTT assay; assay type: functional, cell-based; settings: MCF7, 48 h
[10] = molecular target: T1, Poly [ADP-ribose] polymerase 1 (Homo sapiens, UniProt P09874); assay: Inhibition of PARP1 (unknown origin)
[11] = molecular target: T1, Poly [ADP-ribose] polymerase 1; assay: Inhibition of human recombinant PARP1 at 10 uM relative to control
[12] = molecular target: T1, Poly [ADP-ribose] polymerase 1; assay: Inhibition of human recombinant PARP1 at 100 uM relative to control
[13] = Antiproliferative activity against human MCF10A cells assessed as inhibition of cell growth incubated for 72 hrs by alamar blue assay; assay type: functional, cell-based; settings: MCF10AT1, 72 h
[14] = molecular target: T1, Poly [ADP-ribose] polymerase 1; assay: Inhibition of human recombinant PARP1 at 1 uM relative to control
[15] = molecular target: T1, Poly [ADP-ribose] polymerase 1; assay: Inhibition of human recombinant PARP1 at 0.1 uM relative to control
[16] = molecular target: T1, Poly [ADP-ribose] polymerase 1; assay: Inhibition of human recombinant PARP1 at 0.01 uM relative to control
HCT-116 [17] = assay: Cytotoxicity against human HCT-116 cells assessed as reduction in cell growth incubated for 96 hrs by MTT assay; assay type: functional, cell-based; settings: HCT-116, 96 h
MDA-MB-436 [18] = assay: Antiproliferative activity against human MDA-MB-436 cells assessed as reduction in cell viability incubated for 72 hrs by MTT assay; assay type: functional, cell-based; settings: MDA-MB-436, 72 h
[19] = molecular target: T1, Poly [ADP-ribose] polymerase 1; assay: Inhibition of human recombinant PARP-1 by ELISA assay
SNB-75 = assay: Growth inhibition of human SNB-75 cells; assay type: functional
MCF7 [20] = assay: Antiproliferative activity against human MCF7 cells assessed as reduction in cell viability at 10 uM incubated for 48 hrs by MTT assay; assay type: functional
MCF7 [21] = assay: Antiproliferative activity against human MCF7 cells assessed as reduction in cell viability incubated for 72 hrs by MTT assay; assay type: functional, cell-based; settings: MCF7, 72 h
A549 [22] = assay: Antiproliferative activity against human A549 cells assessed as reduction in cell viability incubated for 72 hrs by MTT assay; assay type: functional, cell-based; settings: A549, 72 h
[23] = Cytotoxicity against mouse BALB/3T3 cells assessed as reduction in cell viability incubated for 72 hrs by MTT assay; assay type: toxicity, cell-based
MCF7 [24] = assay: Antiproliferative activity against human MCF7 cells assessed as reduction in cell viability at 10 uM incubated for 24 hrs by MTT assay; assay type: functional
NCI-H226 = assay: Growth inhibition of human NCI-H226 cells; assay type: functional
HCT-116 [25] = assay: Antiproliferative activity against human HCT-116 cells assessed as reduction in cell viability incubated for 72 hrs by MTT assay; assay type: functional, cell-based; settings: HCT-116, 72 h
LOX IMVI = assay: Growth inhibition of human LOX IMVI cells; assay type: functional
RPMI-8226 = assay: Growth inhibition of human RPMI-8226 cells; assay type: functional
KB 3-1 = assay: Antiproliferative activity against human KB 3-1 cells assessed as reduction in cell viability incubated for 72 hrs by MTT assay; assay type: functional, cell-based; settings: KB 3-1, 72 h
HCT-116 [26] = assay: Growth inhibition of human HCT-116 cells; assay type: functional
MCF7 [27] = assay: Antiproliferative activity against human MCF7 cells assessed as reduction in cell viability at 10 uM incubated for […] by MTT assay; assay type: functional
IGROV-1 = assay: Growth inhibition of human IGROV-1 cells; assay type: functional
MDA-MB-468 = assay: Growth inhibition of human MDA-MB-468 cells; assay type: functional
SK-OV-3 [28] = assay: Antiproliferative activity against human SK-OV-3 cells assessed as reduction in cell viability incubated for 72 hrs by MTT assay; assay type: functional, cell-based; settings: SK-OV-3, 72 h
Jurkat = assay: Antiproliferative activity against human Jurkat cells assessed as reduction in cell viability incubated for 72 hrs by MTT assay; assay type: functional, cell-based
MCF7 [29] = assay: Cytotoxicity against human MCF7 cells harbouring BRCA1 assessed as inhibition of cell growth measured after 72 hrs by MTT assay; assay type: functional, cell-based; settings: MCF7, 72 h
MX1 = assay: Antiproliferative activity against human MX1 cells assessed as cell growth inhibition; assay type: functional, cell-based
MCF7 [30] = assay: Antiproliferative activity against human MCF7 cells assessed as cell growth inhibition; assay type: functional, cell-based
[31] = molecular target: T1, Poly [ADP-ribose] polymerase 1; assay: Inhibition of human PARP1
[32] = Cytotoxicity against human WI-38 cells assessed as reduction in cell viability incubated for 48 hrs by MTT assay; assay type: toxicity, cell-based
MDA-MB-436 [33] = assay: Antiproliferative activity against human MDA-MB-436 cells; assay type: functional, cell-based
SK-OV-3 [34] = assay: Inhibition of colony formation in human SK-OV-3 cells at 10 uM by crystal violet staining assay; assay type: functional
SK-OV-3 [35] = assay: Antiproliferative activity against human SK-OV-3 cells assessed as reduction in cell growth; assay type: functional, cell-based
MDA-MB-231 [36] = assay: Antiproliferative activity against human MDA-MB-231 cells assessed as reduction in cell growth; assay type: functional, cell-based
MCF7 [37] = assay: Antiproliferative activity against human MCF7 cells assessed as reduction in cell growth; assay type: functional, cell-based
HCT-116 [38] = assay: Antiproliferative activity against human HCT-116 cells assessed as reduction in cell growth; assay type: functional, cell-based
A2780 = assay: Antiproliferative activity against human A2780 cells assessed as reduction in cell growth; assay type: functional, cell-based
MCF7 [39] = assay: Antiproliferative activity against human MCF7 cells assessed as reduction in cell growth measured after 72 hrs by MTT assay; assay type: functional, cell-based; settings: MCF7, 72 h

T1 sequence (P09874 whole entry): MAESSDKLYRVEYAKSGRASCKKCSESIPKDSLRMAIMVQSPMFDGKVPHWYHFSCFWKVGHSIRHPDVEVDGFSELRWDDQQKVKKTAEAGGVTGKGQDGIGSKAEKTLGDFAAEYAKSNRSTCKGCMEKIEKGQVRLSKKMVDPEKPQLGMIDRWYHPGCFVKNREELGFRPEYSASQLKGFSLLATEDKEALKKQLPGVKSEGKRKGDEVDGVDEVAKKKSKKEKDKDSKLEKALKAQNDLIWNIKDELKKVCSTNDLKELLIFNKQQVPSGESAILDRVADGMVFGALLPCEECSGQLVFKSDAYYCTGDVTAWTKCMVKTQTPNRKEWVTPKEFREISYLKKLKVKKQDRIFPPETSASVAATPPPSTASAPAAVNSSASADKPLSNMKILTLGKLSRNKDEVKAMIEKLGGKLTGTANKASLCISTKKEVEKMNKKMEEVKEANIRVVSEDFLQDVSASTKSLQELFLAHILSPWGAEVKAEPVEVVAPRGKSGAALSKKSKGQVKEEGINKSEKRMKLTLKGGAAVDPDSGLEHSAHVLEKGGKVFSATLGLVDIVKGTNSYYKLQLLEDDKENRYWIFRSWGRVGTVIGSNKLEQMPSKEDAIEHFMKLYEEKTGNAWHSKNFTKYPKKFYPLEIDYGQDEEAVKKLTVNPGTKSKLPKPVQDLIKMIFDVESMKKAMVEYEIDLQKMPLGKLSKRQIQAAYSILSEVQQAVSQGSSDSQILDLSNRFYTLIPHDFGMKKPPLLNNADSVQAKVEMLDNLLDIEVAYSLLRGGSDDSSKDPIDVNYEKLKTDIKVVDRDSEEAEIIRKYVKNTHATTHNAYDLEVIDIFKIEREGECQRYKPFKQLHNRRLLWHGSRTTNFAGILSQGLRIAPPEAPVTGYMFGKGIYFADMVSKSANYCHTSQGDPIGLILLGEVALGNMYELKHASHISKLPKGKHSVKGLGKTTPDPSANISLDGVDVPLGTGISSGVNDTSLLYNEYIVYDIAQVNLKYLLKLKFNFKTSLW
Sequence of Poly [ADP-ribose] polymerase 2 (Q9UGN5 whole entry): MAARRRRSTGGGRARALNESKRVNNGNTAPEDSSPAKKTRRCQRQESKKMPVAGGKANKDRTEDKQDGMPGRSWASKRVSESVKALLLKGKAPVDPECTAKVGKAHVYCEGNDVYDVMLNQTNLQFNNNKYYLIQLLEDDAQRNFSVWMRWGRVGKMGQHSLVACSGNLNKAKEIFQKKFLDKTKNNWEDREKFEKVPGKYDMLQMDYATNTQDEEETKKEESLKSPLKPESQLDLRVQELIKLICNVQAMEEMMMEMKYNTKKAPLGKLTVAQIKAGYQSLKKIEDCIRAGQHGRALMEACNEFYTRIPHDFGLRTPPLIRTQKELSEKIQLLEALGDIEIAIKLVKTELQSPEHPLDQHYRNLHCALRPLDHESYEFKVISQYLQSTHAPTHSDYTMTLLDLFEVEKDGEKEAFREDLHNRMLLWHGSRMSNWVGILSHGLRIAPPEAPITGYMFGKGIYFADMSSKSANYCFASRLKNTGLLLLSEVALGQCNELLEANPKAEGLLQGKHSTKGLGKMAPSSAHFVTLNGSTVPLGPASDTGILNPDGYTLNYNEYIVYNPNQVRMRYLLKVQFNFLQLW
Sequence of Protein mono-ADP-ribosyltransferase PARP3 (Q9Y6F1 whole entry): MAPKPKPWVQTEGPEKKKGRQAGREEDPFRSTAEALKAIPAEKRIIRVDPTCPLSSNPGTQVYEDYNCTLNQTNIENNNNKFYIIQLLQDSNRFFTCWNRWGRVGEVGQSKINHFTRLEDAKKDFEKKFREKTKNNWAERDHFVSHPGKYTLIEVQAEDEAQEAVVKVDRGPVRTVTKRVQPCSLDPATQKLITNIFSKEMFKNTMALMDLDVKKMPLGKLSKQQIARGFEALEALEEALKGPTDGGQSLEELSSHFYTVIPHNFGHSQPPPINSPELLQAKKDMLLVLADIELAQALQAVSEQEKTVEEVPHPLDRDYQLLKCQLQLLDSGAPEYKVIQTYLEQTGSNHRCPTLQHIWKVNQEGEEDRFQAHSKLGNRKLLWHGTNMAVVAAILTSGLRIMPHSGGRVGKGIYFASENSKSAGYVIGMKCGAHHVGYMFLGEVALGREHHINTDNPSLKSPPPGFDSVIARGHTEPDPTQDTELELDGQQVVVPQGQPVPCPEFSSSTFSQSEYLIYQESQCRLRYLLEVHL

Compound: COc1ccc(Cc2nnc(-c3cccc(-c4ccnc(F)c4C)c3)o2)cc1OC
IC50 (MDA-MB-231 [1]): 19.2 µM
IC50 (MCF7 [2]): 15.3 µM

IC50 [3]: 0.0305 µM
IC50 (A549 [4]): 3.67 µM
IC50 (HepG2): 2.01 µM
IC50 (MCF7 [5]): 4.25 µM
IC50 (HCT-116 [6]): 3.94 µM
Compound: O=C1CCc2cc(-c3ccccc3F)ccc2C2(CCCCC2)N1

IC50 (MDA-MB-157): 0.00037 µM
IC50 (HCC1395): 0.00046 µM
Compound: Cn1ncnc1[C@H]1c2n[nH]c(=O)c3cc(F)cc(c23)N[C@@H]1c1ccc(F)cc1 [TALAZOPARIB]

IC50 [7]: 0.07 µM
Compound: O=C(CCN1CCOCC1)Nc1ccc(-c2nc3cc(Cl)ccc3o2)cc1
IC50 (MDA-MB-231 [8]): 6.14 µM
IC50 (MCF7 [9]): 6.05 µM

IC50 [3]: 4.3 µM
IC50 [10]: 22 µM
Compound: O=C1N[C@H](C2CC2)[C@@H](C(=O)N2CCC(N3CCCCC3)CC2)c2ccc(F)cc21

inhibition [11]: 70.3%
inhibition [12]: 85.8%
inhibition [14]: 29.8%
inhibition [15]: 15.6%
inhibition [16]: 0.5%
Compound: COc1ccc(CSc2nccc(OCC(=O)N3CCN(c4ccc(C)cc4)CC3)n2)cc1
IC50 [13]: 46.9 µM

Compound: O=c1[nH]c2c(c(=O)[nH]1)C(c1cccs1)c1[nH]c(=S)n(-c3ccccc3)c(=O)c1O2 (stereo not given)
IC50 (HCT-116 [17]): 46 µM

IC50 (MDA-MB-436 [18]): 36.7 µM
IC50 [19]: 0.043 µM
Compound: NC(=O)c1cccc2[nH]c(-c3ccc(C(=O)N4CCN(C(=O)c5ccc(Cl)o5)CC4)cc3)nc12

IC50 [3]: 0.72 µM
IC50 (MCF7 [21]): 2.79 µM
IC50 (A549 [22]): 8.05 µM
IC50 [10]: 2.28 µM
GI50 (NCI-H226): 2.52 µM
IC50 (HCT-116 [25]): 6.11 µM
GI50 (RPMI-8226): 8.29 µM
IC50 (KB 3-1): 7.63 µM
GI50 (HCT-116 [26]): 23 µM
GI50 (MDA-MB-468): 4.24 µM
IC50 (SK-OV-3 [28]): 7.87 µM
IC50 (Jurkat): 5.36 µM
Compound: CCOC(=O)c1ccc(NC(=O)CS/C(=C\C(=O)c2sc(Nc3ccccn3)nc2C)c2ccccc2F)cc1
GI50 (SNB-75): 3.58 µM
Activity (MCF7 [20]): 43%
IC50 at 72 h [23]: 7.79 µM
Activity (MCF7 [24]): 19.9%
GI50 (LOX IMVI): 0.312 µM
Activity (MCF7 [27]): 90%
GI50 (IGROV-1): 12.1 µM
IC50 (MCF7 [29]): 0.7 µM

inhibition [11]: 53%
inhibition [12]: 82.1%
inhibition [14]: 20.6%
inhibition [15]: 2%
inhibition [16]: 1.3%
Compound: COc1ccc(CSc2nccc(OCC(=O)N3CCN(c4cccc(Cl)c4Cl)CC3)n2)cc1
IC50 [13]: 18.2 µM

IC50 (MCF7 [30]): 37.9 µM
Compound: O=C1NCC(c2ccc(-c3ccc(C(F)(F)F)cc3)cc2)Nc2ccccc21 (stereo not given)
IC50 (MX1): 24.6 µM

Compound: COc1ccc(Cc2nnc(-c3cccc(-c4cccc(C=O)c4)c3)o2)cc1
IC50 (MDA-MB-231 [1]): 29.3 µM
IC50 (MCF7 [2]): 1.4 µM

IC50 [31]: 0.0044 µM
IC50 (MDA-MB-436 [33]): 2.57 µM
Compound: Cc1cc(C)n(S(=O)(=O)c2ccc3[nH]c(=O)c(=O)[nH]c3c2)n1
IC50 at 48 h [32]: 81.7 µM

IC50 [7]: 0.057 µM
Compound: CCN(CC)CCC(=O)Nc1ccc(-c2nc3cc(Cl)ccc3o2)cc1

IC50 (SK-OV-3 [35]): 4.98 µM
IC50 (MDA-MB-231 [36]): 47.6 µM
IC50 (MCF7 [37]): 38.1 µM
IC50 (HCT-116 [38]): 8.75 µM
IC50 (A2780): 24.8 µM
Compound: CCNC(=S)N/N=C\c1ccc(-c2nc3c(oc4ccccc43)c(=O)[nH]2)cc1
inhibition at 10 µM (SK-OV-3 [34]): 78.1%

IC50 [10]: 0.17 µM
IC50 (MCF7 [39]): 11.4 µM
Compound: O=C(Cn1c(=S)n(-c2ccccc2)c(=O)c2ccccc21)Nc1ccc2c(c1)C(=O)c1ccccc1C2
